Data as given in article PMC6337391 (Molecules, 2019).

Tests used:
[1] = Reducing activity with the stable radical DPPH
Method: The chalcones were studied for the antioxidant activity (reducing activity RA%) by the use of the stable free radical 2,2-diphenyl-1-picrylhydrazyl radical (DPPH) at concentrations 0.05 mM after 20 and 60 min (Table 2). In this procedure, the dominant chemical reaction involved is the reduction of the DPPH radical by single electron transfer from the antioxidant. […] For the sake of comparison, we measured the RA% values for the intermediate double ethers d which were included in the Table 2.
To a solution of DPPH (final concentration 0.05 mM) in absolute ethanol an equal volume of the compounds solution in DMSO (stock solution 10 mM) dissolved in ethanol was added. Absolute ethanol was used as a control. The concentrations of the solutions of the compounds were 0.05 and 0.1 mM. The absorbance was recorded at 517 nm at room temperature after 20 and 60 min [29] (Table 2).

soybean lipoxygenase = target: T1, soybean lipoxygenase (Glycine max, UniProt P08170); experiment: biochemical; type: biochemical; settings: soybean LOX, 100 μM
T1 sequence (P08170 1-839): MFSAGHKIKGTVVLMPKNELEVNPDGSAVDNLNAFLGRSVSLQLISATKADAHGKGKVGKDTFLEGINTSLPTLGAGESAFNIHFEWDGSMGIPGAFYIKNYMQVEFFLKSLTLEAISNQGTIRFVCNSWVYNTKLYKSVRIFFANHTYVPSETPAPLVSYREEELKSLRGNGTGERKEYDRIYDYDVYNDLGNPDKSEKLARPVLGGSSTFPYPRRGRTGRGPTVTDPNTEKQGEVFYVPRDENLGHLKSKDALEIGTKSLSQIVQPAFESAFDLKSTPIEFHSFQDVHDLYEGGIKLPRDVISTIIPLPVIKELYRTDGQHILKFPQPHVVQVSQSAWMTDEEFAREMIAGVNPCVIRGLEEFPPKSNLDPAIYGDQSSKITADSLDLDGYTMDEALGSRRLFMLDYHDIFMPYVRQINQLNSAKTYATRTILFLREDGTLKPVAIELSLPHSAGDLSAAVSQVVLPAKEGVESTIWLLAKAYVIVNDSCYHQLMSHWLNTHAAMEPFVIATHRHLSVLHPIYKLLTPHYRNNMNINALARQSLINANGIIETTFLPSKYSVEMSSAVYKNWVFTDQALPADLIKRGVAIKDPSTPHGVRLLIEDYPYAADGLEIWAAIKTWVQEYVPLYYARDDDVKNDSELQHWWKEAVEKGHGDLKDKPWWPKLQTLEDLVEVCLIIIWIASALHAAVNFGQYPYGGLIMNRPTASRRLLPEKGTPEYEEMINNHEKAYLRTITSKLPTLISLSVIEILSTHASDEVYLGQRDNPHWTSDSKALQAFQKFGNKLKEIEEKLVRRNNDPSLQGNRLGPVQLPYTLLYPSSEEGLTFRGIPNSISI
Text: In our experiments we used soybean lipoxygenase. Designing agents to modulate activities of the variety of so closely homologous enzymes, such as different LOXs, require an intimate knowledge of their 3D structures, as well as information about metabolism of the potential xenobiotics. […] Due to lack of sufficiently-purified human enzymes most of the research has been done on soybean LOX [52, 53]. Although this enzyme is not identical to the mammalian one, it seems that there is a sufficient qualitative correlation between values for enzyme inhibition with the two enzymes.
In vitro study was evaluated as reported previously. The tested compounds as stock solutions were dissolved in DMSO. Ten microliters (10 μL) were incubated at room temperature with sodium linoleate ([…]) and 0.2 mL of enzyme solution (1/9 × 10^−4 w/v in saline) in buffer pH 9 (tris) at room temperature (final volume 1 mL). […] Several concentrations were used for the determination of IC50 values.

[2] = system: L929 mouse fibroblasts cells; experiment: Cytotoxicity, propidium iodide fluorescence method; type: cell-based; settings: 24-h incubation
Method: The cytotoxicity of the synthesized derivatives against L929 mouse fibroblasts cells was determined using the propidium iodide (PI) fluorescence method in the presence of different concentrations (1–100 μM) of these compounds. The results are presented in Table 4 in the form of the % cell survival values as PI% for the examined compounds. […] Chalcones c7, c8, c11, and c12 follow.
L929 mouse fibroblasts cells were cultured in EMEM supplemented with 10% horse serum, 2 mM L-glutamine, 1 mM sodium pyruvate, 0.1 mM nonessential amino acids, 1.5 g/L sodium bicarbonate, and 100 μg/mL penicillin–streptomycin at 37 °C in a humidified atmosphere with 5% CO2. L929 cells were plated into 24-well plates at a density […] and allowed to attach and grow for 24 h. The supernatant in each well then replaced with medium containing various concentrations (1, 10, 20, 50 and 100 μM) of compounds a5–12, c5–12, di, and dii–dvi, which presented the more interesting results in the in vitro experiments. After 24-h incubation, the supernatant was removed and the cells were washed with PBS. The cells were detached with 0.25% trypsin, transferred to FACS tubes, and then centrifuged (1600 rpm for 5 min) and the pellet washed with PBS. After washing, the cells in the pellet were incubated with 5 μL propidium iodide (PI) solution (1 mg/mL) for 1 min. The PI fluorescence (cell death) was determined with flow cytometry, FACS Calibur, Coulter Epics XL-MCL (Beckman, Inc., Mount Holly, NJ, USA). The analysis of flow cytometry data was performed with the WinMDI analysis program (Table 4).

[3] = Inhibition of linoleic acid lipid peroxidation (AAPH)
Text: The water soluble 2,2′-azobis(2-amidinopropane) hydrochloride (AAPH) generates in vitro free radicals through spontaneous thermal decomposition. […] Overall, chalcones a, b, and c present anti-lipid peroxidation activity. […] The inhibiting activities for the rest b chalcones ranged from 15–44%. The intermediate ethers are moderate inhibitors. […] This might be correlated with the presence of the double C=C–COCH3 group. […] Both have a long ether chain in their structure.
In an aqueous solution spectrophotometrically at 234 nm the production of conjugated diene hydro peroxide by oxidation of sodium linoleate was monitored and recorded according to our previous published experimental conditions, using 10 µL of the 16 mM sodium linoleate solution added to the UV cuvette containing 930 μL of 0.05 M phosphate buffer, pH 7.4 pre-thermostated at 37 °C, under air by the addition of 50 μL of 40 mM AAPH solution, which was used as a free radical initiator. Ten microliters (10 μL) of the appropriate solutions of the tested compounds were added in the mixture, whereas same level of DMSO was used as a blank for the measurement of lipid oxidation. The rate of oxidation at 37 °C was monitored by recording the increase in absorption at 234 nm caused by conjugated diene hydro peroxides.

[4] = ABTS•+ decolorization assay
Method: The decolorization assay is used to evaluate the antioxidant activity. The ABTS^•+ cationic radical is derived from the direct oxidation of ABTS by potassium persulfate. No involvement of an intermediary radical is observed. The addition of electron-donating antioxidants reduce ABTS^•+.
Stock solutions of the tested compounds in DMSO (10 mM) were diluted. […] aliquots of each sample were added into the ABTS·^+ solution and the absorbance was recorded at room temperature. Trolox was used as a standard.

[5] = Lipophilicity as RM values by RP-TLC; type: physicochemical; design: key: RM = log[(1/Rf) − 1]; settings: methanol/water 70/30, SD < 10%
Text: It is well-documented and discussed in the literature that lipophilicity is a very significant physicochemical property which may critically affect distribution, bioavailability, metabolic activity and elimination, all the useful characteristics for the kinetics of biologically active compounds. Thus, we attempted to determine experimentally the lipophilicity of the synthesized compounds from the RPTLC method as RM values. The method is considered to be a reliable, fast and convenient method for expressing lipophilicity. Moreover, many calculated methods were used in order to predict the logP value.
Reversed phase TLC (RP-TLC) was performed on silica gel plates impregnated with 5% (v/v) liquid paraffin in light petroleum ether. The mobile phase was a methanol/water mixture (70/30, v/v). The plates were developed in closed chromatography tanks saturated with the mobile phase at 24 °C. Spots were detected under UV light. Five individual measurements of Rf values were recorded and used for the determination of RM using the equation RM = log [(1/Rf) − 1]. (Table 3).

Row | Compound | RA% 100 μM 20 min [1] | RA% 100 μM 60 min [1] | % LOX Inhb. @ 100 μM (soybean lipoxygenase) [%] | 1 μM Average (% pi) ± σ [2] [%] | 10 μM Average (% pi) ± σ [2] [%] | 20 μM Average (% pi) ± σ [2] [%] | 50 μM Average (% pi) ± σ [2] [%] | 100 μM Average (% pi) ± σ [2] [%] | AAPH% @ 100 μM (anti-lipid peroxidation) [3] [%] | ABTS•+ Inhb. % @ 100 μM [4] | RM [5]
1 | O=C(/C=C/C=C/c1ccccc1)c1ccc(OCCCOc2ccc(C(=O)/C=C/C=C/c3ccccc3)cc2)cc1 [c7, (2E,2′E,4E,4′E)-1,1′-((propane-1,3-diylbis(oxy))bis(4,1-phenylene))bis(5-phenylpenta-2,4-dien-1-one)] | No | no | 41 | 22.5 ± 11.64 | 28.73 ± 11.78 | 25.4 ± 8.42 | 28.84 ± 5.62 | 28.84 ± 5.62 | 82 | No | −0.77
2 | O=C(/C=C/C(Br)=C\c1ccccc1)c1ccc(OCCCOc2ccc(C(=O)/C=C/C(Br)=C\c3ccccc3)cc2)cc1 [c9, (2E,2′E,4E,4′E)-1,1′-((propane-1,3-diylbis(oxy))bis(4,1-phenylene))bis(4-bromo-5-phenylpenta-2,4-dien-1-one)] | No | no | 24.5 | 12.5 ± 10.31 | 15.88 ± 6.31 | 28.76 ± 2.74 | 29.53 ± 6.87 | 29.53 ± 6.87 | 32 | No | −0.86
3 | CC(/C=C/C(=O)c1ccc(OCCCOc2ccc(C(=O)/C=C/C(C)=C/c3ccccc3)cc2)cc1)=C\c1ccccc1 [c8, (2E,2′E,4E,4′E)-1,1′-((propane-1,3-diylbis(oxy))bis(4,1-phenylene))bis(4-methyl-5-phenylpenta-2,4-dien-1-one)] | No | no | 26.5 | 35.72 ± 10.23 | 29.05 ± 9.62 | 35.69 ± 5.85 | 38.7 ± 4.96 | 38.7 ± 4.96 | 75 | No | −0.85
4 | Cc1ccc(/C=C/C(=O)c2ccc(O)cc2)o1 [a12, (E)-1-(4-hydroxyphenyl)-3-(5-methylfuran-2-yl) prop-2-en-1-one] | 24% | 9% | 2 | 0.88 ± 0.31 | 3.25± 2.11 | 8.12 ± 0.32 | 63.54 ± 6.16 | 63.54 ± 6.16 | 45 | 6% | −0.81
5 | O=C(/C=C/C(Br)=C\c1ccccc1)c1ccc(O)cc1 [a9, (2E,4E)-4-bromo-1-(4-hydroxyphenyl)-5-phenylpenta-2,4-dien-1-one] | 10% | 1% | 16 | 0.55 ± 0.09 | 0.59 ± 0.83 | 2.7 ± 0.68 | 7.59 ± 0.13 | 7.59 ± 0.13 | 33 | No | −0.82
6 | O=C(/C=C/c1ccco1)c1ccc(O)cc1 [a10, (E)-3-(furan-2-yl)-1-(4-hydroxyphenyl) prop-2-en-1-one] | 23% | 10% | 23 | 3.03 ± 0.88 | 2.25 ± 0.38 | 2.39 ± 1.08 | 17.15 ± 0.32 | 17.15 ± 0.32 | 24 | 2% | −0.06
